Tests used:
[1] = tested on: murine cortical neurons (14 DIV); assay: NMDA-mediated neuroprotective assay (CCK8 viability); type: cell-based, mouse; settings: 1 μM, 3 h pre-treatment, NMDA 8 μM 24 h, p<0.05
Outline: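 Primary murine cortical neurons pre-treated with 1 μM compound for 3 or 24 h, then exposed to 8 μM NMDA for 24 h. Viability read by CCK-8 and expressed relative to NMDA-only control; vehicle 0.02% DMSO.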

[2] = tested on: iPSC-derived glutamatergic neurons; assay: ROS (tBuOOH)-mediated neuroprotective assay on hNeu; type: cell-based, human
Procedure: Neuroprotective experiments were performed using iPSC-derived glutamatergic neurons from 3 healthy controls cultured for 30-40 DIV. Cells were pre-treated for 24 h with […] of compounds, vehicle (DMSO) or 5 nM Mito-Q (mitoquinone) served as a positive control. On the next day cells were incubated for 2 h with 100 µM of tert-butyl peroxide (tBuOOH, Sigma), then the medium was replaced and the viability readout by CCK8 viability assay kit (Dojindo) was performed on the following day. The cell viability was expressed as normalized Z score and compared to tBuOOH-treated cells with nonparametric Kruskal-Wallis test with Dunn's multiple comparisons correction.
32 “Front runners” and 7 compounds from short list were tested on iPSC-derived neurons from three control lines in ROS-mediated assay to evaluate a neuroprotective potential of selected compounds. Three independent experiments were performed for CTR4 and CTR8, FIG. 20 (A, C), while two independent experiments were performed for CTR7, FIG. 20 (B).

[3] = tested on: H9-derived human neural stem cells; assay: Neurotoxic or regenerative effect screening (CellTiter-Glo); type: cell-based; settings: 10 μM, three independent screenings
Procedure: H9-derived human neural stem cells (H9 hNSCs, Gibco) were cultured according to the manufacturer's instructions. Briefly, H9 hNSCs were expanded and subsequently differentiated in neurobasal medium, 2% B27, 1% Glutamax, and 1% penicillin/streptomycin, supplemented with 10 ng/ml BDNF (Peprotech), and 2 ng/ml recombinant human GDNF (Peprotech). After 7 days, 500 μM of db-cAMP (N6,2′-O-dibutyryladenosine 3′,5′-cyclic monophosphate, Sigma) was added.
The metabolic activity/viability of selected compounds (32 “Front Runners”+24 compounds from the “Short list”) was evaluated by CellTiter-Glo® Luminescent Cell Viability Assay. The primary screen of Front Runner List (32 compounds)+24 compounds from Short List) on H9-derived human neurons was performed at 10 μM concentration. The validation of hits from primary screen on H9-derived human neurons was performed at 10 μM concentration.
32 Front Runners were tested at 10 μM on H9-derived human neuronal cultures and viability was evaluated by CellTiter-Glo® Luminescent Cell Viability Assay.

rat primary OPC cultures = assay: Differentiation of rat primary OPC into MBP+ OLs; type: cell-based; settings: 96 h, 4 days of differentiation, read-out: MBP+ differentiation (MBP+/SOX10+ OLs plus compounds / plus basal medium)
Outline: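 Primary rat OPCs were differentiated for 4 days with compounds at […], in triplicate over 3 independent experiments. Cells were immunolabelled for CNPase, MBP and SOX10, and MBP+ oligodendrocytes were counted by imaging. Results are fold increase in MBP+/SOX10+ cells over basal medium; 9-cis-RA ([…]) was the positive control.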

[4] = tested on: mouse cortical and striatal neurons; assay: Morphological integrity evaluation, NMDA 20 μM; type: cell-based; settings: 1 μM, 24 h pre-treatment, NMDA 20 μM 24 h
Procedure: Morphological integrity evaluation. Mouse cortical and striatal neurons (14 DIV) cultured in MW96 plates were exposed to 1 uM to 60 uM concentrations of NMDA and relationship between the NMDA dose and fiber length was evaluated. […] Each of the compound was tested in quadruplicate. The fiber length was evaluated by MAP2 staining (please see the method described earlier).
42 compounds were screened to evaluate the morphological integrity of cortical and striatal neurons upon chronic (24 h) NMDA exposure at concentration of 20 μM with compounds pre-treatment (24 h) in preventive regimen (FIG. 17).

[5] = tested on: primary murine spinal cord culture; assay: Myelinating cell cultures from primary murine spinal cord; type: cell-based, mouse; settings: 1 μM
Procedure: Single cell suspensions are prepared from spinal cord of mouse embryos (E13) (adapted from Thomson, 2008) and 1.5×10^5 cells/well were plated into 96 well plates. Over time, these cultures mature and form axons, which later myelinate. Using spinal cord tissue facilitates the quantification of mature MBP+ oligodendrocytes and newly formed myelin by in-house high-content imaging system (Operetta High Content Imaging System, Perkin Elmer) with a 20× lens. From each well, 25 fields in a 5×5 matrix were scanned. Thirty-two “Front Runners” compounds were tested in replicates of five at 1 μM/DMSO, while T3, benzotropine and clemastine were used as positive controls, DMSO as negative/solvent control. Two experimental paradigms were applied: “Early treatment”: exposure to experimental agent from DIV7 to DIV14; “Late treatment”: exposure to experimental agent from DIV14-DIV21. On DIV21, cultures were fixed and stained (myelin: MBP, axons: NF200; nuclei: Hoechst). Imaging data were analysed using CellProfiler and in-house generated analysis pipeline.
Thirty-two “Front Runners” compounds were tested in replicates of five at 1 μM/DMSO, while T3, benztropine and clemastine were used as positive controls, DMSO as negative/solvent control. Two experimental paradigms were applied: “Early treatment”: exposure to experimental agent from DIV7 to DIV14; “Late treatment”: exposure to experimental agent from DIV14-DIV21. […] In “Late treatment” paradigm in myelin area evaluation were identified Vanoxerine, Roxadustat, Tamibarotene, Drinabant, Progesterone, Saracatinib. In quantification of myelinated axons were identified Vanoxerine, Drinabant, Roxadustat.

[6] = summary for all three control lines
[7] = control line CTR4, 1 μM, p<0.05

Row | SMILES | neuroprotection of viability/metabolic activity against NMDA [1] | protection from tBuOOH insult [2, 6] | cumulative Z-scores of ATP production/viability [3] | fold induction at 1 µM (rat primary OPC cultures) | myelin area ([5]; Early treatment DIV7 to DIV14) | also measured
1 | CCOC(=O)[C@@H](N)CCC(=O)N[C@@H](CSCc1ccccc1)C(=O)N[C@@H](C(=O)OCC)c1ccccc1.Cl [Ezatiostat hydrochloride, Ezatiostat Hydrochloride] | hit compounds | potential neuroprotective effect from tBuOOH-mediated insult | potential hits | – | – | –
2 | O=C(NOC[C@H](O)CO)c1ccc(F)c(F)c1Nc1ccc(I)cc1F [PD-0325901] | – | – | potential hits | > 1.6 | – | –
3 | NCCCC[C@H](NC(=O)[C@@H](Cc1cc(Br)c(O)c(Br)c1)NC(=O)N1CCC(N2Cc3ccccc3NC2=O)CC1)C(=O)N1CCN(c2ccncc2)CC1 [Olcegepant] | – | potential neuroprotective effect from tBuOOH-mediated insult | – | > 1.6 | – | morphological integrity (neurite length) of cortical and striatal neurons [4]: selected for confirmation
4 | CC1(C)CCC(C)(C)c2cc(NC(=O)c3ccc(C(=O)O)cc3)ccc21 [Tamibarotene] | hit compounds | – | – | > 1.6 | identified | myelin area ([5]; Late treatment DIV14-DIV21): identified
5 | O=C(c1ccc(CN2CCOCC2)cc1)N1CCN(C2CC2)CC1 [Bavisant] | – | – | – | > 1.6 | – | –
6 | C[C@H](Nc1cc(-c2cnn(C)c2)cc(Nc2cnccn2)n1)c1ccc(F)cc1 [NS-018] | – | potential neuroprotective effect from tBuOOH-mediated insult | – | – | identified | protection from tBuOOH insult [2, 7]: protected from tBuOOH insult; protection from tBuOOH insult ([2]; control line CTR8, p<0.05): potential neuroprotective compound from tBuOOH-mediated insult; quantification of myelinated axons ([5]; Early treatment DIV7 to DIV14): identified
7 | CC(=O)[C@H]1CC[C@H]2[C@@H]3CCC4=CC(=O)CC[C@]4(C)[C@H]3CC[C@]12C [Progesterone] | hit compounds | – | – | – | identified | myelin area ([5]; Late treatment DIV14-DIV21): identified
8 | CC(=O)N1CCN([C@H]2CCN(C(=O)N(C)[C@H](C)c3cc(C(F)(F)F)cc(C(F)(F)F)c3)[C@@H](c3ccc(F)cc3C)C2)CC1 [Casopitant] | – | potential neuroprotective effect from tBuOOH-mediated insult | potential hits | > 1.6 | identified | morphological integrity (neurite length) of cortical and striatal neurons [4]: selected for confirmation; protection from tBuOOH insult [2, 7]: protected from tBuOOH insult; protection from tBuOOH insult ([2]; control line CTR7, p=0.07): trend to significance; quantification of myelinated axons ([5]; Early treatment DIV7 to DIV14): identified

From patent publication US20240148745A1, “COMPOUNDS FOR USE IN PROGRESSIVE MULTIPLE SCLEROSIS” (FONDAZIONE CENTRO SAN RAFFAELE, priority 2021, published 2024)
